25 compounds from ChEMBL document CHEMBL1133759, “6beta-Acyloxy(nor)tropanes: affinities for antagonist/agonist binding sites on transfected and native muscarinic receptors” (J Med Chem, 2000) can be followed below.

By Ki is commonly meant a measure of affinity in units of concentration, obtained from inhibition or displacement. As a reminder, the inhibition is how much of the control response was suppressed. A low value points to a response near the control.

Assay [1] addresses Muscarinic acetylcholine receptor. Briefly: The binding affinity was measured as inhibition of binding of [3H]- oxotremorine-M to muscarinic acetylcholine receptor in rat cerebral cortical membranes. Type of assay: cell membranes, Membrane.
Assay [2] has the same target. The assay is classed as cell membranes, Rattus norvegicus, Membrane.
The nature of assay [3]: Ratio of affinity versus antagonist [3H]-QNB divided by affinity versus agonist [3H]OXO-M. The assay is classed as functional.
Assay [4] concerns the target T1, Muscarinic acetylcholine receptor M4 (Homo sapiens, UniProt P08173).
T1 sequence (P08173 whole entry): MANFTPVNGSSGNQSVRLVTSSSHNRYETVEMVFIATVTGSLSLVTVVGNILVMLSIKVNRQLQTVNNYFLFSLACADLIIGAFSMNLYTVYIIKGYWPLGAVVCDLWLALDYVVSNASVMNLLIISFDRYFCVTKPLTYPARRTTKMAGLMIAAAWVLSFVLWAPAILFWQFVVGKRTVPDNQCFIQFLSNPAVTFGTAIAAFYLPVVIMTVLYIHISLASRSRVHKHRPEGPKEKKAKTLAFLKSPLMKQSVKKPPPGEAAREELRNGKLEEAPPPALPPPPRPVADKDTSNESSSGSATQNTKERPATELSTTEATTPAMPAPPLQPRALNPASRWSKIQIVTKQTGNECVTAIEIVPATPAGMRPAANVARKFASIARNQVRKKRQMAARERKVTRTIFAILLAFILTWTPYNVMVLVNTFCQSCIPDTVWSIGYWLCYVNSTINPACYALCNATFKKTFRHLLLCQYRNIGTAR
The assay is described as follows: Inhibition of [3H]- oxotremorine-M binding to human Muscarinic acetylcholine receptor M4 in CHO cell membranes.

The target of assay [5] is T1, Muscarinic acetylcholine receptor M4. Type of assay: cell membranes, CHO.
Assay [6] addresses T2, Muscarinic acetylcholine receptor M1 (Homo sapiens) (UniProt P11229).
T2 sequence (whole entry): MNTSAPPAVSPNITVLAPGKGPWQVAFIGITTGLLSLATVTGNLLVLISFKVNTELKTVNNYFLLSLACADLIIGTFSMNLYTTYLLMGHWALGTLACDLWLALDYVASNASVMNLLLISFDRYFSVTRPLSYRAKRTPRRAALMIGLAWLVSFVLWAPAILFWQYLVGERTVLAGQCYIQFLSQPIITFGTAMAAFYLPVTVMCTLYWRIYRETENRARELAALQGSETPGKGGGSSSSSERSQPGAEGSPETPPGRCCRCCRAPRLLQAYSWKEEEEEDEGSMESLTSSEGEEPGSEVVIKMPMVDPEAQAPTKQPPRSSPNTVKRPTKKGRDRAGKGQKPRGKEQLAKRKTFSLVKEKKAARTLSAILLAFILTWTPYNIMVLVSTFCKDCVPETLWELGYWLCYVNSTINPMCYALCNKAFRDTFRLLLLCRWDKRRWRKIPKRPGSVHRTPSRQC
Conditions: CHO; at 100 µM.
Description: Inhibition of binding of [3H]- quinuclidinyl benzilate to Muscarinic acetylcholine receptor M1 in membranes of CHO cells at 100 uM compound concentration

Assay [7] concerns the target T3, Muscarinic acetylcholine receptor M3 (Homo sapiens, UniProt P20309). The conditions noted are these: CHO; at 100 µM.
Target sequence in this assay (P20309 whole entry, looked up): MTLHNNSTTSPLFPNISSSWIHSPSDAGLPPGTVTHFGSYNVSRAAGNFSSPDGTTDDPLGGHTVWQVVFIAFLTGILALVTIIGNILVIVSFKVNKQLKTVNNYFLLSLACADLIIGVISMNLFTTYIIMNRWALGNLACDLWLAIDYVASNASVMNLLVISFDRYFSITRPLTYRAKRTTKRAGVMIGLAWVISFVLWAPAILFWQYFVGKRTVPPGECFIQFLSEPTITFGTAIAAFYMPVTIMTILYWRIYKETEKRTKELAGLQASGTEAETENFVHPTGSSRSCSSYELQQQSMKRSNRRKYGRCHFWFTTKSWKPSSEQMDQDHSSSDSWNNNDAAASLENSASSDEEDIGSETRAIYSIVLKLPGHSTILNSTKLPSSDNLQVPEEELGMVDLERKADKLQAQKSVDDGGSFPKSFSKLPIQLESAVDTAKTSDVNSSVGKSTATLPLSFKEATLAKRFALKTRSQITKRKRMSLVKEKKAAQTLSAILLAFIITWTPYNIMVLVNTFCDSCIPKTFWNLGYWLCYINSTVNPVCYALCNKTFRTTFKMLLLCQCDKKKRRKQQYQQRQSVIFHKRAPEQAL
Description: Inhibition of binding of [3H]- quinuclidinyl benzilate to Muscarinic acetylcholine receptor M3 in membranes of CHO cells at 100 uM compound concentration
Assay [8] deals with Muscarinic acetylcholine receptor. Briefly: The binding affinity was measured as inhibition of binding of [3H]- quinuclidinyl benzilate to Muscarinic acetylcholine receptor. Type of assay: protein assay.
Assay [9] addresses T4, Muscarinic acetylcholine receptor M1 (Homo sapiens, UniProt P11229).
T4 sequence (P11229 whole entry): T2 sequence (whole entry)
The assay is described as follows: Inhibition of [3H]- oxotremorine-M binding to human Muscarinic acetylcholine receptor M1 expressed in CHO cell membranes. The assay is classed as cell-based.

Assay [10] deals with T5, Muscarinic acetylcholine receptor M2 (Homo sapiens, UniProt P08172).
T5 sequence (P08172 whole entry): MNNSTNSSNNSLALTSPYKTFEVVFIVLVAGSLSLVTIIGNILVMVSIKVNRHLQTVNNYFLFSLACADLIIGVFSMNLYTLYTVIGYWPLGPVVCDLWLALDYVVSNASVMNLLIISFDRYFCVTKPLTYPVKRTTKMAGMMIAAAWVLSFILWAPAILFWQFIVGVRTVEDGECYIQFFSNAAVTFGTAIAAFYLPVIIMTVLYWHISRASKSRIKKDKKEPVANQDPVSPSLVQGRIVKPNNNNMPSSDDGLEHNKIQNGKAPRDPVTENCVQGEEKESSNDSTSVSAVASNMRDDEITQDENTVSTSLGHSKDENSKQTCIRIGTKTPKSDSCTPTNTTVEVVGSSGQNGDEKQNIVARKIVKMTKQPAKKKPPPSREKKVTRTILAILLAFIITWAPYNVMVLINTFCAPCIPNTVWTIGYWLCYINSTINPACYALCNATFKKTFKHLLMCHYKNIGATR
Briefly: Inhibition of [3H]- oxotremorine-M binding to human Muscarinic acetylcholine receptor M2 expressed in CHO cell membranes.

For assay [11], the target named is Muscarinic acetylcholine receptor.
Assay [12] shares this target. The source holds these as a separate data set.
Description: Inhibition of [3H]- quinuclidinyl benzilate binding to Muscarinic acetylcholine receptor of rat heart membranes.
Assay [13] concerns the target T2, Muscarinic acetylcholine receptor M1 (Homo sapiens). Briefly: Inhibition of binding of [3H]- quinuclidinyl benzilate to Muscarinic acetylcholine receptor M1 in membranes of CHO cells at 100 uM. Type of assay: cell membranes.
The target of assay [14] is T5, Muscarinic acetylcholine receptor M2. The assay is classed as cell membranes, CHO.
Assay [15] addresses T3, Muscarinic acetylcholine receptor M3. Type of assay: cell membranes, CHO.
Target sequence in this assay (P20309 whole entry): as the sequence (P20309 whole entry, looked up) above
Assay [16] addresses T2, Muscarinic acetylcholine receptor M1 (Homo sapiens). Conditions: CHO.
Assay [17] addresses T4, Muscarinic acetylcholine receptor M1. The assay is described as follows: The binding affinity was measured as inhibition of binding of [3H]- quinuclidinyl benzilate to Muscarinic acetylcholine receptor M1 in membranes of CHO cells. Type of assay: cell membranes.
Assay [18] concerns the target T3, Muscarinic acetylcholine receptor M3. Briefly: The binding affinity was measured as inhibition of binding of [3H]- quinuclidinyl benzilate to m3 Muscarinic acetylcholine receptor M3 in membranes of CHO cells. Type of assay: cell membranes.
Target sequence in this assay (P20309 whole entry): as the sequence (P20309 whole entry, looked up) above

In the case of `COc1ccccc1C(=O)OC1CC2CCCC1N2C` (stereo not given), the values for the inhibition constant Ki in assay [1] and in assay [2] were 1400 nM and 31000 nM, respectively. In [3], the Ratio is 22.
`C[C@@H]1O[C@H](C[N+](C)(C)C)C[C@H]1O` [MUSCARINE]: the Ki was found to be 23 nM in assay [4] and 1400 nM in [5]. Also, the inhibition turned out to be 2% in assay [6] and 28% in assay [7].
Regarding `CC(=O)OC1CC2CCCC1N2` (stereo not given), the Ki in [1] was determined as 2 nM; in assay [8], 22000 nM; in assay [9] it was 4.6 nM; in [10], 7 nM; in assay [11], 0.95 nM; in [4] it was 4 nM. The compound further showed a Ki in assay [12] of 400 nM. In [3], the Ratio stood at 11000.
In the case of `CCC(=O)OC1CC2CCCC1N2` (stereo not given), the Ki worked out at 30 nM in assay [1]; 32000 nM in assay [2]; 190 nM in assay [9]; 190 nM in [10]; 3100 nM in assay [14]; 11400 nM in assay [15]. Further, the results for the inhibition constant (Ki) in [4] and in [5] were 85 nM and 660 nM, respectively. Besides, in assay [13], the inhibition was found to be 36%. In [3], the Ratio worked out at 1100.
Turning to `CN(C)C(=O)OC1CC2CCCC1N2` (stereo not given), the inhibition constant (Ki) in [1] was found to be 1700 nM. In assay [3], the Ratio is greater than 60.
In the case of `CC(=O)OC1CC2CCCC1N2C` (stereo not given), the Ki worked out at 860 nM in [1]; 280000 nM in assay [2]; 2300 nM in assay [9]; 4400 nM in [10]; 92 nM in assay [11]; 900 nM in assay [4]. In assay [12], this compound displayed a Ki of 17000 nM. The Ratio in [3] came out at 330. Moreover, the inhibition (at 100uM) in [16] worked out at 11%.
Consider `COc1ccc(C(=O)OC2CC3CCCC2N3C)cc1` (stereo not given), for which, in assay [1], the inhibition constant Ki is 7300 nM. Besides, the Ratio in assay [3] was greater than 15.
In turn, `CS(=O)(=O)OC1CC2CCCC1N2` (stereo not given) had an inhibition constant (Ki) in [1] of 2700 nM. For the same compound, the Ratio in [3] is greater than 100.
`O=C(Nc1ccccc1)OC1CC2CCCC1N2` (stereo not given) registered a Ki in assay [1] of 4300 nM. In addition, the Ratio in assay [3] was greater than 25.
The matching figures for `CN1C2CCCC1C(OC(=O)Nc1ccccc1)C2` (stereo not given): 5100 nM and greater than 20.
Turning to `CN1C2CCCC1C(OS(C)(=O)=O)C2` (stereo not given), the inhibition constant Ki in [1] was 2200 nM. Besides, the Ratio in assay [3] is greater than 100.
For the compound `CN1C2CCCC1C(OC(=O)C1CCCCC1)C2` (stereo not given), the Ki is 860 nM in assay [1]; 8500 nM in assay [2]; 450 nM in assay [9]; 7000 nM in assay [17]; 1600 nM in assay [10]; 730 nM in assay [14]. In addition, the inhibition constant (Ki) in [15] worked out at 3000 nM; in assay [4], 700 nM; in assay [5], 300 nM. For the same compound, the Ratio in assay [3] was 13.
`CN1C2CCCC1C(OC(=O)c1ccccc1)C2` (stereo not given): the inhibition constant (Ki) worked out at 860 nM in assay [1]; 1800 nM in [2]; 270 nM in [9]; 7700 nM in assay [17]; 1300 nM in [10]; 260 nM in [14]. Further, the inhibitory constant (Ki) in assay [11] is 790 nM; in [15] it was 3200 nM; in [4] it was 910 nM; in assay [5], 410 nM; in assay [12], 1400 nM. For the same compound, in assay [3], the Ratio was 2.1.
For `CN1C2CCCC1C(OC(=O)OCC(Cl)(Cl)Cl)C2` (stereo not given), the Ki in [1] worked out at 720 nM; in [2], 23000 nM; in assay [9], 1000 nM; in assay [17], 27000 nM; in assay [10], 920 nM; in assay [14], 820 nM. Moreover, the Ki was determined as 6700 nM in [15], 2300 nM in assay [4] and 42 nM in [5]. The Ratio in assay [3] was found to be 31.
Turning to `CN(C)C(=O)OC1CC2CCCC1N2C` (stereo not given), the Ratio in [3] was greater than 60.
In the case of `COc1ccc(C(=O)OC2CC3CCCC2N3)cc1` (stereo not given), the inhibition constant Ki in [1] was 1700 nM. Also, the Ratio in assay [3] is greater than 60.
For `O=C(OC1CC2CCCC1N2)C1CCCCC1` (stereo not given), the Ki in assay [1] is 1900 nM; in assay [2], 25000 nM; in assay [9] it was 970 nM; in assay [17], 20000 nM; in assay [10] it was 9000 nM; in [14], 3600 nM. In addition, the Ki turned out to be 7500 nM in assay [15], 2200 nM in assay [4] and 840 nM in assay [5]. Besides, the Ratio in assay [3] came to 13.
`O=C(OC1CC2CCCC1N2)c1ccc([N+](=O)[O-])cc1` (stereo not given): the Ki in assay [1] is 430 nM; in assay [2], 2200 nM; in assay [9], 29 nM; in [17], 780 nM; in [10], 310 nM; in [14] it was 360 nM. The Ki in [18] is 450 nM; in assay [4], 450 nM; in assay [5], 48 nM. For the same compound, the Ratio in assay [3] was 5.1.
As for `COc1ccccc1C(=O)OC1CC2CCCC1N2` (stereo not given), the Ki in assay [1] came to 2800 nM; in [2], 53000 nM. The Ratio in assay [3] was determined as 19.
The matching figures for `CCCC(=O)OC1CC2CCCC1N2` (stereo not given): 160 nM, 30000 nM and 190.
In the case of `CN1C2CCCC1C(OC(=O)c1ccc([N+](=O)[O-])cc1)C2` (stereo not given), in assay [1], the Ki is 14000 nM. Also, the Ratio in assay [3] is greater than 10.
As for `CCCC(=O)OC1CC2CCCC1N2C` (stereo not given), the values for the inhibition constant Ki in [1] and in assay [2] were 1200 nM and 34000 nM, respectively. Also, in assay [3], the Ratio was found to be 28.
For the compound `CCC(=O)OC1CC2CCCC1N2C` (stereo not given), the inhibition constant (Ki) is 1500 nM in assay [1]; 230 nM in assay [9]; 1200 nM in assay [10]; 2400 nM in assay [14]; 7400 nM in [15]; 1400 nM in assay [4]. For the same compound, affinity in [5] was put at a Ki of 960 nM. Also, the Ratio in assay [3] is greater than 70. Moreover, in assay [6], the inhibition was found to be 46%.
On to `O=C(OC1CC2CCCC1N2)c1ccccc1` (stereo not given), for which the inhibition constant Ki in assay [1] was 650 nM; in assay [2] it was 800 nM; in assay [9], 120 nM; in assay [17], 2800 nM; in assay [10], 1700 nM; in assay [14], 300 nM. Further, the Ki in assay [11] turned out to be 440 nM; in assay [15], 1300 nM; in assay [4], 500 nM; in assay [5], 190 nM; in [12], 1400 nM. For the same compound, in [3], the Ratio came to 1.2.
For `O=C1CCCN1CC#CCN1CCCC1` [OXOTREMORINE], the Ki in assay [1] worked out at 13 nM; in [2] it was 58000 nM; in assay [9] it was 17 nM; in assay [10] it was 38 nM; in assay [14], 660 nM; in assay [11], 6 nM. The Ki was 1.5 nM in assay [4], 160 nM in assay [5] and 330 nM in [12]. In addition, in [3], the Ratio is 4500. In addition, the inhibition is 9% in assay [6] and 28% in [7].
